This assay has as its target T1, CCR4 (Homo sapiens, UniProt P51679).
T1 construct: expressed in transfected cells; host or cells: HEK293
T1 sequence (P51679 1-360): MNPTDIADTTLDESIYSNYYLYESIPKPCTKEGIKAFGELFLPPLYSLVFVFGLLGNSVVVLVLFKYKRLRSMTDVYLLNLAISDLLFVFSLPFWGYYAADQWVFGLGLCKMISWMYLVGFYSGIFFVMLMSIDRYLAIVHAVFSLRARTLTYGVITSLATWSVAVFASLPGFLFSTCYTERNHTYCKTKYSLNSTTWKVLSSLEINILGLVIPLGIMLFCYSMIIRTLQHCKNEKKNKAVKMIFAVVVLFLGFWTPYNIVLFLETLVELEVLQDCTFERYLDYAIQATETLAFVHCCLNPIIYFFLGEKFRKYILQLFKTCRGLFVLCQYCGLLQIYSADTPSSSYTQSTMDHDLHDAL
As to the kind of experiment: Calcium flow detected by FLIPR. The class given is cell-based. As to conditions: CCR4/HEK293 cells, agonist CCL17, Fluo-4 calcium signal. Here is the method: CCR4/HEK293 cells were added to a 384-well cell culture plate (Greiner #781946) at a rate of 20 μL/well (20,000 cells/well) and incubated overnight in a 37° C., 5% CO2 incubator (Incubator, Thermo). On the second day, the 384-well cell culture plate was taken out of the incubator and the culture medium was removed; Then, 20 μL of detection buffer and 20 μL of 2X Fluo-4 Direct™ (Invitrogen, Cat #F10471) were added. Then, compounds were added at 10 μL/well (compounds were subjected to 4-fold serial dilution, and the highest detection concentration was 10 μM), and the cells were incubated in a 37° C., 5% CO2 incubator for 50 min, and then incubated at room temperature for 10 min. The 384-well culture plate was placed in FLIPR ([…]), 10 μL of 6X agonist CCL17 was added by using an automatic loader, and the fluorescence signal was read immediately. The mean and standard error (Mean±SEM) were statistically analyzed using Graphpad Prism software, and the IC50 value was calculated.
The experimental results are shown in Table 3, where A represents IC50<100 nm; B represents 100 nM≤IC50<500 nM, and C represents 500 nM≤IC50.

pIC50: −log10 of the molar value.

IC50 data for 40 molecules are collected here from patent publication US20250340532A1, “HETEROCYCLIC COMPOUND CCR4 INHIBITOR AND USER THEREOF” (Xizang Haisco Pharmaceutical Co., Ltd., priority 2022, published 2025).

`C#Cc1cc(Cl)ccc1C(C)Nc1nc(N2CC(C3CCCN(C4CC(C)(C(=O)O)C4)C3)C2)nc(C)c1Cl` (single isomer, unassigned) [Compound 7 isomer 2]: the negative-log IC50 (pIC50) is 6.30 to 7.00.

Take `Cc1nc(N2CC(C3CCCC(N4CC(C)(C(=O)O)C4)C3)C2)nc(NC(C)c2ccc(Cl)cc2Cl)c1Cl` (single isomer, unassigned) [Compound 8 isomer 1]: the pIC50 is 6.30 to 7.00.

As to `Cc1nc(N2CC(C3CCCN(C4CC(C)(C(=O)O)C4)C3)C2)nc(NC(C)c2cc(Cl)sc2Cl)c1Cl` (single isomer, unassigned) [Compound 10 isomer 1], the negative-log IC50 (pIC50) is 6.30 to 7.00.

In the case of `C#Cc1ccc(C(C)Nc2nc(N3CC([C@H]4CCCN([C@H]5C[C@](C)(C(=O)O)C5)C4)C3)nc(C)c2Cl)c(Cl)c1` (single isomer, unassigned) [Compound 11 isomer 1], the negative logarithm of the IC50 (pIC50) was greater than 7.00.

With `Cc1nc(N2CC(N3CCCC(N4CC(C)(C(=O)O)C4)C3)C2)nc(NC(C)c2ccc(Cl)cc2Cl)c1Cl` (single isomer, unassigned) [Compound 16 isomer 1], the pIC50 is 6.30 to 7.00.

Take `Cc1nc(N2CC(N3CCCC(N4CC(C)(C(=O)O)C4)C3)C2)nc(NC(C)c2ccc(Cl)cc2Cl)c1Cl` (single isomer, unassigned) [Compound 16 isomer 2]: the pIC50 was greater than 7.00.

Regarding `Cc1nc(C#CC2CCCN(C3CC(C)(C(=O)O)C3)C2)nc(NC(C)c2ccc(Cl)cc2Cl)c1Cl` (single isomer, unassigned) [Compound 18 isomer 2], the pIC50 is greater than 7.00.

As for `Cc1nc(C2CN(C3CCCN(C4CC(C)(C(=O)O)C4)C3)C2)nc(NC(C)c2ccc(Cl)cc2Cl)c1Cl` (single isomer, unassigned) [Compound 20 isomer 3], the pIC50 was greater than 7.00.

For the molecule `C#Cc1ccc(C(C)Nc2nc(N3CC(C4CN(C5CC(C)(C(=O)O)C5)CCO4)C3)nc(C)c2Cl)c(Cl)c1` (single isomer, unassigned) [Compound 28 isomer 1], the pIC50 was greater than 7.00.

Regarding `C[C@@H](Nc1cc(N2CC(C3CN(C4CC(C)(C(=O)O)C4)CCO3)C2)ncn1)c1ccc(Cl)cc1Cl` (single isomer, unassigned) [Compound 29 isomer 1], the negative-log IC50 (pIC50) is 6.30 to 7.00.

Regarding `C#Cc1cc(Cl)ccc1C(C)Nc1nc(N2CC(C3CN(C4CC(C)(C(=O)O)C4)CCO3)C2)nc(C)c1Cl` (single isomer, unassigned) [Compound 30 isomer 1], the pIC50 is greater than 7.00.

In the case of `CC(Nc1nc(N2CC(C3CN(C4CC(C)(C(=O)O)C4)CCO3)C2)ncc1Br)c1ccc(Cl)cc1Cl` (single isomer, unassigned) [Compound 37 isomer 1], the negative logarithm of the IC50 (pIC50) was greater than 7.00.

In the case of `CC(Nc1nc(N2CC(C3CN(C4CC(C)(C(=O)O)C4)CCO3)C2)ncc1Br)c1ccc(Cl)cc1Cl` (single isomer, unassigned) [Compound 37 isomer 2], the negative logarithm of the IC50 (pIC50) is 6.30 to 7.00.

On to `CC(Nc1nc(N2CC(C3CN(C4CC(C)(C(=O)O)C4)CCO3)C2)ncc1Cl)c1ccc(Cl)cc1Cl` (single isomer, unassigned) [Compound 42 isomer 1], for which the negative-log IC50 (pIC50) was greater than 7.00.

As to `C[C@@H](Nc1nc(N2CC(C3CN(C4CC(C)(C(=O)O)C4)CCO3)C2)nc2ccsc12)c1ccc(Cl)cc1Cl` (single isomer, unassigned) [Compound 54 isomer 1], the negative-log IC50 (pIC50) was 6.30 to 7.00.

For the molecule `CC(Nc1nc(N2CC(C3CN(C4CC(C)(C(=O)O)C4)CCO3)C2)c2ccccc2n1)c1ccc(Cl)cc1Cl` (single isomer, unassigned) [Compound 60 isomer 1], the negative-log IC50 (pIC50) is 6.30 to 7.00.

On to `CC(Nc1nc(N2CC(F)(C3CN(C4CC(C)(C(=O)O)C4)CCO3)C2)nc(C(F)(F)F)c1Cl)c1ccc(Cl)cc1Cl` (single isomer, unassigned) [Compound 65 isomer 3], for which the negative-log IC50 (pIC50) was 6.30 to 7.00.

As to `CC(Nc1nc(N2CC(F)(C3CN(C4CC(C)(C(=O)O)C4)CCO3)C2)nc(C(F)F)c1Cl)c1ccc(Cl)cc1Cl` (single isomer, unassigned) [Compound 66 isomer 3], the pIC50 is 6.30 to 7.00.

Regarding `C[C@@H](Nc1nc(N2CC(C3CN(C4CC(C)(C(=O)O)C4)CCO3)C2)nc2ccccc12)c1ccc(Cl)cc1Cl` (single isomer, unassigned) [Compound 67 isomer 1], the pIC50 is greater than 7.00.

Take `C[C@@H](Nc1nc2c(c(N3CC(C4CN(C5CC(C)(C(=O)O)C5)CCO4)C3)n1)CN(C)C2)c1ccc(Cl)cc1Cl` (single isomer, unassigned) [Compound 68 isomer 1]: the pIC50 was 6.30 to 7.00.

Regarding `Cc1nc(N2CC(C3CN(C4CC(C)(c5nn[nH]n5)C4)CCO3)C2)nc(NC(C)c2ccc(Cl)cc2Cl)c1Cl` (single isomer, unassigned) [Compound 71 isomer 1], the pIC50 is 6.30 to 7.00.

As for `CC(Nc1nc(N2CC(C3CN(C4CC(C)(C(=O)O)C4)CCC34CC4)C2)nc(C(F)F)c1Cl)c1ccc(Cl)cc1Cl` (single isomer, unassigned) [Compound 74 isomer 3], the negative-log IC50 (pIC50) is 6.30 to 7.00.

For the molecule `CC(Nc1cc(C#CC2CCCN(C3CC(C)(C(=O)O)C3)C2)ccc1Cl)c1ccc(Cl)cc1Cl` (single isomer, unassigned) [Compound 75 isomer 2], the negative-log IC50 (pIC50) is 6.30 to 7.00.

As to `C[C@@H](Nc1nc(N2CC(C3CN(C4CC(C)(C(=O)O)C4)CCO3)C2)nc(C(F)F)c1Cl)c1ccc(Cl)cc1Cl` (single isomer, unassigned) [Compound 77 isomer 2], the pIC50 is greater than 7.00.

In the case of `Cc1nc(N2CC(C3CN(C4CC(c5nn[nH]n5)C4)CCO3)C2)nc(NC(C)c2ccc(Cl)cc2Cl)c1Cl` (single isomer, unassigned) [Compound 79 isomer 1], the negative-log IC50 (pIC50) is 6.30 to 7.00.

`Cc1nc(N2CC(C3CN(C4CC(c5nn[nH]n5)C4)CCO3)C2)nc(NC(C)c2ccc(Cl)cc2Cl)c1Cl` (single isomer, unassigned) [Compound 79 isomer 2]: the pIC50 is 6.30 to 7.00.

On to `Cc1nc(N2CC(C3CN(CCO)CCN3C)C2)nc(NC(C)c2ccc(Cl)cc2Cl)c1Cl` (single isomer, unassigned) [Compound 80 isomer 1], for which the negative logarithm of the IC50 (pIC50) is greater than 7.00.

On to `Cc1nc(N2CC(C3CN(C4CC(C)(C(=O)O)C4)CCN3C)C2)nc(NC(C)c2ccc(Cl)cc2Cl)c1Cl` (single isomer, unassigned) [Compound 81 isomer 1], for which the pIC50 is 6.30 to 7.00.

As for `Cc1nc(N2CC(F)(C3CN(C4CC(C(=O)O)C4)CCO3)C2)nc(N[C@H](C)c2ccc(Cl)cc2Cl)c1Cl` (single isomer, unassigned) [Compound 84 isomer 1], the pIC50 was 6.30 to 7.00.

As to `CC(Nc1nc(N2CC(C3C=CCN(C4CC(C)(C(=O)O)C4)C3)C2)nc(C(F)F)c1Cl)c1ccc(Cl)cc1Cl` (single isomer, unassigned) [Compound 85 isomer 1], the negative-log IC50 (pIC50) is greater than 7.00.

Regarding `CC(Nc1cc(N2CC(F)(C3CN(C4CC(C)(C(=O)O)C4)CCO3)C2)ccc1Cl)c1ccc(Cl)cc1Cl` (single isomer, unassigned) [Compound 86 isomer 1], the pIC50 was greater than 7.00.

Regarding `CC(Nc1nc(N2CC(F)(C3CN(C4CC(C)(C(=O)O)C4)CCO3)C2)ncc1Cl)c1ccc(Cl)cc1Cl` (single isomer, unassigned) [Compound 89 isomer 1], the pIC50 was greater than 7.00.

On to `Cc1nc(N2CCC(C3CN(C4CC(C)(C(=O)O)C4)CCN3C)CC2)nc(NC(C)c2ccc(Cl)cc2Cl)c1Cl` (single isomer, unassigned) [Compound 105 isomer 3], for which the negative logarithm of the IC50 (pIC50) is greater than 7.00.

Regarding `Cc1nc(N2CCC(F)(C3CN(C4CC(C)(C(=O)O)C4)CCO3)CC2)nc(NC(C)c2ccc(Cl)cc2Cl)c1Cl` (single isomer, unassigned) [Compound 106 isomer 3], the pIC50 was greater than 7.00.

`Cc1nc(N2CC=C(C3CN(C4CC(C)(C(=O)O)C4)CCO3)CC2)nc(NC(C)c2ccc(Cl)cc2Cl)c1Cl` (single isomer, unassigned) [Compound 107 isomer 1]: the pIC50 is greater than 7.00.

For `C[C@@H](Nc1cc(N2CCC(C3CN(C4CC(C)(C(=O)O)C4)CCO3)CC2)nc2ccnn12)c1ccc(Cl)cc1Cl` (single isomer, unassigned) [Compound 111], the pIC50 is greater than 7.00.

As for `C#Cc1c(C)nc(N2CC([C@H]3CCCN([C@H]4C[C@](C)(C(=O)O)C4)C3)C2)nc1N[C@H](C)c1ccc(Cl)cc1Cl` [Compound 4], the pIC50 was greater than 7.00.

Regarding `Cc1cc(N2CC([C@H]3CCCN([C@H]4C[C@](C)(C(=O)O)C4)C3)C2)nc(N[C@H](C)c2ccc(Cl)cc2Cl)n1` [Compound 12], the negative-log IC50 (pIC50) was greater than 7.00.

`Cc1nc(N2CC([C@H]3CCCN([C@H]4C[C@](C)(C(=O)O)C4)C3)C2)nc(NC(C)c2cc3c(cc2Cl)CC3)c1Cl` (stereo partly shown) [Compound 13]: the negative logarithm of the IC50 (pIC50) was 6.30 to 7.00.

For `C[C@@H](Nc1cc(N2CC([C@H]3CCCN([C@H]4C[C@](C)(C(=O)O)C4)C3)C2)nc2ccnn12)c1ccc(Cl)cc1Cl` [Compound 14], the pIC50 was greater than 7.00.
